Legend:
[1] = biological target: T1, erythropoietin receptor (EPOR, P19235) (Homo sapiens, UniProt P19235); assay: cell-based ligand-lactamase fusion binding to cells expressing EPO receptor (CCF2 fluorescence); conditions: for fluorescence readout, multiplexed pool of 12 receptors: EPOR in pool of 12 receptors; for fluorescence readout, multiplexed pool of 96 receptors: EPOR in pool of 96 receptors; for fluorescence readout, one on one receptor-ligand binding / fluorescence readout, multiplexed pool of 12 ligands / fluorescence readout, multiplexed pool of 96 ligands: EPOR; for fluorescence readout, one on one receptor-ligand binding: one to one, beta-lactamase reporter, CCF2 substrate
T1 construct: V5-His (from vector pcDNA3.1D/V5-His-TOPO); expressed in transfected cells
T1 sequence (P19235 25-508): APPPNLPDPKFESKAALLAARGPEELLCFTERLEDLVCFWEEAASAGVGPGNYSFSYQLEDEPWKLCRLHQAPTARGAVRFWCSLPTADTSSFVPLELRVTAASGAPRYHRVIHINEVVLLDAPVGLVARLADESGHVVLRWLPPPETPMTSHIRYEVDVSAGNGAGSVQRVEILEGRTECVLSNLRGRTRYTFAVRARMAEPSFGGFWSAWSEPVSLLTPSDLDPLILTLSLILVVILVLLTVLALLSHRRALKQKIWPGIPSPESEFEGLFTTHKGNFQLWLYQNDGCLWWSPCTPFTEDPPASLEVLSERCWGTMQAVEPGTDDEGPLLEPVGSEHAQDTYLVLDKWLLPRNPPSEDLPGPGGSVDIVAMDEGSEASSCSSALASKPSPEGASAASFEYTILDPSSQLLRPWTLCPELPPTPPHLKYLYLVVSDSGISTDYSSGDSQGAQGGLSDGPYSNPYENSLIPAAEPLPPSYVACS
Protocol: (§1) Cells transfected with plasmids expressing a ligand lactamase fusion and cells transiently or stably expressing receptor were independently cultured in multiple well (e.g., 96-well, 384-well, or 1536-well) plates. After growth, the culture medium of the cells transiently or stably expressing receptor was removed, and the culture medium of the cells expressing ligand lactamase fusion was added to the wells of cells stably expressing receptor. After the mixture was incubated at 4° C. for 1 hour, the medium was removed. The cells stably expressing receptor were washed three times with PBS containing 1% FBS (Invitrogen), and a lactamase substrate, such as CCF2 in […], was added to the washed cells in each well, and incubated. The fluorescence emission at 447 nm with excitation at 409 nm was measured using the Spectra Max Gemim (Molecular Devices) at different time points. The increase of fluorescence emission at 447 nm represented the lactamase activity of ligand fusion bound on the cell surface.
The EPO receptor and EPO, IL-8, and TNF ligand lactamase fusion proteins were expressed as described above. The EPO, IL-8, and TNF ligand lactamase fusions were contacted with the EPO receptor in duplicate experiments.
EPO, IL-8, and TNF receptors and ligands were expressed as described above. Known ligands, including the EPO ligand, were grouped to form a multiplexed pool of 12 ligands and a multiplexed pool of 96 ligands. Compared to the fluorescence readout for one on one receptor-ligand binding for EPO/EPOR (26398 arbitrary units), the fluorescence readout (and thus, binding) was less for EPO/IL-8R (−503) and EPO/TNFR (−1027).
EPO, IL-8, and TNF receptors and ligands were expressed as described above. Known receptors, including the EPO receptor, were grouped to form a multiplexed pool of 12 receptors and a multiplexed pool of 96 receptors. Compared to the fluorescence readout for one on one receptor-ligand binding for EPOR/EPO (26398 arbitrary units), the fluorescence readout (and thus, binding) was less for EPOR/IL-8 (−902) and EPOR/TNF (−1113.5).

[2] = biological target: T2, tumor necrosis factor receptor 2 (TNFR, P20333) (Homo sapiens, UniProt P20333); assay: cell-based ligand-lactamase fusion binding to cells expressing TNF receptor (CCF2 fluorescence); conditions: for fluorescence readout, multiplexed pool of 12 receptors: TNFR in pool of 12 receptors; for fluorescence readout, multiplexed pool of 96 receptors: TNFR in pool of 96 receptors; for fluorescence readout, one on one receptor-ligand binding / fluorescence readout, multiplexed pool of 12 ligands / fluorescence readout, multiplexed pool of 96 ligands: TNFR; for fluorescence readout, one on one receptor-ligand binding: one to one, beta-lactamase reporter, CCF2 substrate
T2 construct: V5-His (from vector pcDNA3.1D/V5-His-TOPO); expressed in transfected cells
T2 sequence (P20333 23-461): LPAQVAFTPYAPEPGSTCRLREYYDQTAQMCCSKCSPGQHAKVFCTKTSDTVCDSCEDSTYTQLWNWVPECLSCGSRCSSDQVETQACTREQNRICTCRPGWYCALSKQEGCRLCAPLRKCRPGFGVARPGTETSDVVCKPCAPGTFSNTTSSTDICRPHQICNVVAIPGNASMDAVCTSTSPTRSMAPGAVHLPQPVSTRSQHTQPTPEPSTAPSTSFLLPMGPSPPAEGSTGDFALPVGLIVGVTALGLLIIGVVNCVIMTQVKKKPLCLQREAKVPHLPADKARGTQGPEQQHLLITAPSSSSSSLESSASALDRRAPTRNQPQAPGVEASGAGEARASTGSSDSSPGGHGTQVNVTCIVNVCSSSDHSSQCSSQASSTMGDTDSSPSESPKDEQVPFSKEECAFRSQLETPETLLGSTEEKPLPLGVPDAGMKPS
Protocol: as §1
The TNF receptor and TNF, EPO, and IL-8 ligand lactamase fusion proteins were expressed as described above. The TNF, EPO, and IL-8 ligand lactamase fusions were contacted with the TNF receptor in duplicate experiments.
EPO, IL-8, and TNF receptors and ligands were expressed as described above. Known ligands, including the TNF ligand, were grouped to form a multiplexed pool of 12 ligands and a multiplexed pool of 96 ligands. Compared to the fluorescence readout for one on one receptor-ligand binding for TNF/TNFR (32899 arbitrary units), the fluorescence readout (and thus, binding) was less for TNF/EPOR (−1113.5) and TNF/IL-8R (−814.5).
EPO, IL-8, and TNF receptors and ligands were expressed as described above. Known receptors, including the TNF receptor, were grouped to form a multiplexed pool of 12 receptors and a multiplexed pool of 96 receptors. Compared to the fluorescence readout for one on one receptor-ligand binding for TNFR/TNF (32899 arbitrary units), the fluorescence readout (and thus, binding) was less for TNFR/EPO (−1027) and TNFR/IL-8 (−1677).

[3] = biological target: T3, interleukin-8 receptor A (IL8R, P25024) (Homo sapiens, UniProt P25024); assay: cell-based ligand-lactamase fusion binding to cells expressing IL-8 receptor (CCF2 fluorescence); conditions: for fluorescence readout, multiplexed pool of 12 receptors: IL-8R in pool of 12 receptors; for fluorescence readout, multiplexed pool of 96 receptors: IL-8R in pool of 96 receptors; for fluorescence readout, multiplexed pool of 12 ligands / fluorescence readout, multiplexed pool of 96 ligands / fluorescence readout, one on one receptor-ligand binding: IL-8R; for fluorescence readout, one on one receptor-ligand binding: one to one, beta-lactamase reporter, CCF2 substrate
T3 construct: V5-His (from vector pcDNA3.1D/V5-His-TOPO); expressed in transfected cells
T3 sequence (P25024 1-350): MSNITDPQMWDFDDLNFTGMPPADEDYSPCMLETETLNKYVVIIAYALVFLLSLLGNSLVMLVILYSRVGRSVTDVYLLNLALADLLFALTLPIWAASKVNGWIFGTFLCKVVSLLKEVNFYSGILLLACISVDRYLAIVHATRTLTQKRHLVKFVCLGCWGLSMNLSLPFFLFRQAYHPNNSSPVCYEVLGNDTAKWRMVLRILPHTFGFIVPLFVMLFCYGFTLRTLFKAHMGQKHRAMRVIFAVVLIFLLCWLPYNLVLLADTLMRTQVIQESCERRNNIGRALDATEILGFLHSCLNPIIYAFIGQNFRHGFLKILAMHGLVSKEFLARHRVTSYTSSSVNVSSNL
Protocol: as §1
The IL-8 receptor and IL-8, EPO, and TNF ligand lactamase fusion proteins were expressed as described above. The IL-8, EPO, and TNF ligand lactamase fusions were contacted with the IL-8 receptor in duplicate experiments.
EPO, IL-8, and TNF receptors and ligands were expressed as described above. Known ligands, including the IL-8 ligand, were grouped to form a multiplexed pool of 12 ligands and a multiplexed pool of 96 ligands.
EPO, IL-8, and TNF receptors and ligands were expressed as described above. Known receptors, including the IL-8 receptor, were grouped to form a multiplexed pool of 12 receptors and a multiplexed pool of 96 receptors.

[4] = duplicate experiments, in words

Substance | fluorescence readout, multiplexed pool of 12 receptors [1] | fluorescence readout, multiplexed pool of 96 receptors [1] | fluorescence readout, one on one receptor-ligand binding [1] | fluorescence readout, multiplexed pool of 12 ligands [1] | fluorescence readout, multiplexed pool of 96 ligands [1] | fluorescence readout, multiplexed pool of 12 receptors [2] | fluorescence readout, multiplexed pool of 96 receptors [2] | fluorescence readout, one on one receptor-ligand binding [2] | fluorescence readout, multiplexed pool of 12 ligands [2] | fluorescence readout, multiplexed pool of 96 ligands [2] | fluorescence readout of ligand binding with TNF receptor (FIG. 3) [2, 4] | fluorescence readout, multiplexed pool of 12 receptors [3] | fluorescence readout, multiplexed pool of 96 receptors [3] | fluorescence readout, multiplexed pool of 12 ligands [3] | fluorescence readout, multiplexed pool of 96 ligands [3] | fluorescence readout of the positive well (FIG. 6) ([1]; 96-well plate, cDNA expression library, multiplexing factor of 12, one out of 96 wells) | fluorescence readout of ligand binding with EPO receptor (FIG. 3) [1, 4] | fluorescence readout, one on one receptor-ligand binding [3] | fluorescence readout of ligand binding with IL-8 receptor (FIG. 3) [3, 4]
tumor necrosis factor alpha [TNF] | -1000 arbitrary units | −1634 arbitrary units | −1113.5 arbitrary units | −1005.5 arbitrary units | −1634 arbitrary units | 26974.5 arbitrary units | 6485.5 arbitrary units | 32899 arbitrary units | 26974.5 arbitrary units | 6485.5 arbitrary units | high fluorescence readout | −1275.5 arbitrary units | −381 arbitrary units | −1275.5 arbitrary units | −381 arbitrary units | – | – | – | –
erythropoietin [EPO] | 13570 arbitrary units | 1454 arbitrary units | 26398 arbitrary units | 13570 arbitrary units | 1454 arbitrary units | −1598 arbitrary units | −1177 arbitrary units | −1027 arbitrary units | −1598 arbitrary units | −1177 arbitrary units | – | −785 arbitrary units | −1334 arbitrary units | −785 arbitrary units | −1334 arbitrary units | 13444 | high fluorescence readout | −503 arbitrary units | –
interleukin-8 [IL-8] | −1059 arbitrary units | −1448 arbitrary units | −902 arbitrary units | −1059 arbitrary units | -1450 arbitrary units | −1847 arbitrary units | −718 arbitrary units | −1677 arbitrary units | −147 arbitrary units | −718 arbitrary units | – | 3785 arbitrary units | −476 arbitrary units | 3785 arbitrary units | −476 arbitrary units | – | – | 16941 arbitrary units | high fluorescence readout
